Measurements from patent publication US12365696B2, “Small-molecule focal adhesion kinase (FAK) inhibitors” (DANA-FARBER CANCER INSTITUTE, INC., priority 2019, dated 2025).
Values joined by “and” are separate entries in the source; they are usually repeats but may differ in a detail not shown here. Equal values may be shown once. Read-outs that look alike come from different tables or passages of the source.

Key:
CAMK1 = CAMK1 (Homo sapiens (Human), UniProt Q14012); assay: KINOMEscan; type: binding; settings: CAMK1, 10000 nM; read-out: Percent Control
PIM3 = PIM3 (Homo sapiens (Human), UniProt Q86V86); assay: KINOMEscan; type: binding; settings: PIM3, 10000 nM; read-out: Percent Control
TSSK3 = TSSK3 (Homo sapiens (Human), UniProt Q96PN8); assay: KINOMEscan; type: binding; settings: TSSK3, 10000 nM; read-out: Percent Control
[1] = molecular target: ABL1(Q252H)-phosphorylated (Homo sapiens (Human), UniProt P00519, Q252H); assay: KINOMEscan; type: binding; settings: 10000 nM, read-out: Percent Control
NEK9 = NEK9 (Homo sapiens (Human), UniProt Q8TD19); assay: KINOMEscan; type: binding; settings: NEK9, 10000 nM; read-out: Percent Control
GSK3B = GSK3B (Homo sapiens (Human), UniProt P49841); assay: KINOMEscan; type: binding; settings: 10000 nM, read-out: Percent Control
TRKC = TRKC (Homo sapiens (Human), UniProt Q16288); assay: KINOMEscan; type: binding; settings: 10000 nM, read-out: Percent Control
RET(V804M) = RET(V804M) (Homo sapiens (Human), UniProt P07949, V804M); assay: KINOMEscan; type: binding; settings: 10000 nM, read-out: Percent Control
PTK2 (FAK) = PTK2 (FAK) (Homo sapiens (Human), UniProt Q05397); assay: Z′-LYTE kinase assay (SelectScreen Biochemical Kinase Profiling), enzymatic IC50
Chain of PTK2 (FAK) (Q05397 whole entry): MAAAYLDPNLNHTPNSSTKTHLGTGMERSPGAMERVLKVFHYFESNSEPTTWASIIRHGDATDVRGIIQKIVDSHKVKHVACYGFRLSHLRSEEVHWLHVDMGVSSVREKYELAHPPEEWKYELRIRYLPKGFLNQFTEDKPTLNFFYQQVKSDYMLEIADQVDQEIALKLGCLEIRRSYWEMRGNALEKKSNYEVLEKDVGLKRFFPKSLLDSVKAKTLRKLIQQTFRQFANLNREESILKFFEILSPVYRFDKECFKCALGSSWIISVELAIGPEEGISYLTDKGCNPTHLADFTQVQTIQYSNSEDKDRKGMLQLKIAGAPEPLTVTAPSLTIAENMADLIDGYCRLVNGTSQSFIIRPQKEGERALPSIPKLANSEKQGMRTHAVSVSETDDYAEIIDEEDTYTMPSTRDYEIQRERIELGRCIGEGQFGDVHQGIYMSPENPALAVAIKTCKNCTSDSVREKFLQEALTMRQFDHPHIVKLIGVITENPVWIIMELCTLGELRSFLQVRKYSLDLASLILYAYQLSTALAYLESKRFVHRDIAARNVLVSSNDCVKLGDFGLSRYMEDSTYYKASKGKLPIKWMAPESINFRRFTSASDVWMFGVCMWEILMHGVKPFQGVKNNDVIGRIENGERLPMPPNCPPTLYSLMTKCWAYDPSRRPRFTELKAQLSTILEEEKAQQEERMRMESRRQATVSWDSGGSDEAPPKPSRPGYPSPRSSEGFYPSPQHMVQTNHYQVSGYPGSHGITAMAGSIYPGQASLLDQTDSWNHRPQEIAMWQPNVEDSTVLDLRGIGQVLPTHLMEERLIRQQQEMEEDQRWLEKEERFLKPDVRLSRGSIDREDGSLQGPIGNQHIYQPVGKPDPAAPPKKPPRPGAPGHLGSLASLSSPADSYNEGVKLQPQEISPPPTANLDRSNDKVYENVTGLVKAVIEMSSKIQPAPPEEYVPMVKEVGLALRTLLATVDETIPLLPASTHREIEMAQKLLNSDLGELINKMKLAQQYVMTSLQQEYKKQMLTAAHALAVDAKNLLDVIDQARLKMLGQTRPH
Experimental: Enzymatic IC50 data was obtained through ThermoFisher Scientific SelectScreen™ Biochemical Kinase Profiling Service, using a Z′-LYTE™ kinase-specific assay, as described below.
The test compounds were screened in 1% dimethyl sulfoxide (DMSO) (final) in the well. For 10 point titrations, 3-fold serial dilutions were conducted from the starting concentration.
All peptide/kinase mixtures were diluted to a 2× working concentration in the appropriate kinase buffer (see section kinase specific assay conditions for a complete description).
All ATP solutions were diluted to a 4× working concentration in kinase buffer (50 mM 4-(2-hydroxyethyl)-1-piperazineethanesulfonic acid (HEPES) pH 7.5, 0.01% BRIJ-35, 10 mM MgCl2, 1 mM ethylene glycol-bis(β-aminoethyl ether)-N,N,N′,N′-tetraacetic acid (EGTA)). ATP Km apparent was previously determined using a Z′-LYTE assay.
The development reagent was diluted in development buffer (see section kinase-specific assay conditions—direct and cascade for a complete description).
Using a bar-coded Corning, low volume NBS, black 384-well plate (Corning Cat. #4514), 100 nL of 100× test compound in 100% DMSO was added. […] The plate was then shaken for 30 seconds and held at room temperature for a 60 minute kinase reaction incubation period. At which point 5 μL of development reagent solution was added and the plate was shaken for 30 seconds. The plate was held again at room temperature for a 60 minute development reaction incubation period and then read on a fluorescence plate reader and analyzed.
The 2×PTK2 (FAK)/Tyr 07 mixture was prepared in 50 mM HEPES pH 7.5, 0.01% BRIJ-35, 10 mM MgCl2, 1 mM EGTA. […] After the 1 hour kinase reaction incubation period, 5 μL of a 1:16 dilution of development reagent B was added.
SelectScreen Kinase Profiling Service uses XLfit from ID Business Solutions (IDBS). The dose response curve was curve fit to model number 205 (sigmoidal dose-response model).

MST1R = MST1R (Homo sapiens (Human), UniProt Q04912); assay: KINOMEscan; type: binding; settings: 10000 nM, read-out: Percent Control
[2] = molecular target: RPS6KA5(Kin.Dom.1-N-terminal) (Homo sapiens (Human), UniProt O75582); assay: KINOMEscan; type: binding; settings: 10000 nM, read-out: Percent Control
Chain of RPS6KA5(Kin.Dom.1-N-terminal) (O75582 49-318): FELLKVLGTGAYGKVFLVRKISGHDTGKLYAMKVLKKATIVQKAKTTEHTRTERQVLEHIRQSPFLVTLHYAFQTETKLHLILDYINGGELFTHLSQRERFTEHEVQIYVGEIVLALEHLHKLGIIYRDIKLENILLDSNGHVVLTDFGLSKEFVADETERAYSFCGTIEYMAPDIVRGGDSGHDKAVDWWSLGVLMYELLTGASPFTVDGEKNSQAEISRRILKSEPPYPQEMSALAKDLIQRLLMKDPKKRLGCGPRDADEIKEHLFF

PLK2 = PLK2 (Homo sapiens (Human), UniProt Q9NYY3); assay: KINOMEscan; type: binding; settings: PLK2, 10000 nM; read-out: Percent Control
Chain of PLK2 (Q9NYY3 whole entry): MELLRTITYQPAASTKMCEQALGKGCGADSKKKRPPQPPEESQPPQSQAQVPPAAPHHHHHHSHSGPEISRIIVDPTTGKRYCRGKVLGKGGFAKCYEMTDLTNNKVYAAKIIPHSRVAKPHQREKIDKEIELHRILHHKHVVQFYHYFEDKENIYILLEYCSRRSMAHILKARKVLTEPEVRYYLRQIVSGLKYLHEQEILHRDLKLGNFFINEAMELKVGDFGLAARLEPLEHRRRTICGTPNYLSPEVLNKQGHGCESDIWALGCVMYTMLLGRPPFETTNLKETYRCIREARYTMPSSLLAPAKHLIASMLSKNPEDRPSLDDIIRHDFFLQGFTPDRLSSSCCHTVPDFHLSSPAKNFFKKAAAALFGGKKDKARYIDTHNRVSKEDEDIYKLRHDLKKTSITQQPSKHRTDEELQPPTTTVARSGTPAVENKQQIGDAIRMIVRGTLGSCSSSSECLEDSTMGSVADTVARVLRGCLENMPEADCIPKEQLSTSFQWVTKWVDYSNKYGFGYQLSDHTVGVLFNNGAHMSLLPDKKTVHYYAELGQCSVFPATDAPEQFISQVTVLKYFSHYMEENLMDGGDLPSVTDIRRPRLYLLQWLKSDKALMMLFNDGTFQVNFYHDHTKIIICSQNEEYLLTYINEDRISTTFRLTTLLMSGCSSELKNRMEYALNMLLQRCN

STK16 = STK16 (Homo sapiens (Human), UniProt O75716); assay: KINOMEscan; type: binding; settings: STK16, 10000 nM; read-out: Percent Control
Chain of STK16 (O75716 whole entry): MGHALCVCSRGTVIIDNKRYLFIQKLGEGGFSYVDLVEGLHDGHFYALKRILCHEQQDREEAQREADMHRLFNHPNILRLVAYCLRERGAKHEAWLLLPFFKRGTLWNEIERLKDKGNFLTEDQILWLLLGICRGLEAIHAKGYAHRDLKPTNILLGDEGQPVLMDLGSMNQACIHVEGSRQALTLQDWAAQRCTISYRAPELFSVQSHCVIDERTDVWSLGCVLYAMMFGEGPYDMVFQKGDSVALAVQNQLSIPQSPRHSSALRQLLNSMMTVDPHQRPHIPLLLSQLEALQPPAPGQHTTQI

TEC = TEC (Homo sapiens (Human), UniProt P42680); assay: KINOMEscan; type: binding; settings: 10000 nM, read-out: Percent Control
BRSK1 = BRSK1 (Homo sapiens (Human), UniProt Q8TDC3); assay: KINOMEscan; type: binding; settings: BRSK1, 10000 nM; read-out: Percent Control
TESK1 = TESK1 (Homo sapiens (Human), UniProt Q15569); assay: KINOMEscan; type: binding; settings: TESK1, 10000 nM; read-out: Percent Control
NEK1 = NEK1 (Homo sapiens (Human), UniProt Q96PY6); assay: KINOMEscan; type: binding; settings: NEK1, 10000 nM; read-out: Percent Control
TRPM6 = TRPM6 (Homo sapiens (Human), UniProt Q9BX84); assay: KINOMEscan; type: binding; settings: TRPM6, 10000 nM; read-out: Percent Control
NIM1 = NIM1 (Homo sapiens (Human), UniProt Q8IY84); assay: KINOMEscan; type: binding; settings: NIM1, 10000 nM; read-out: Percent Control
Chain of NIM1 (Q8IY84 whole entry): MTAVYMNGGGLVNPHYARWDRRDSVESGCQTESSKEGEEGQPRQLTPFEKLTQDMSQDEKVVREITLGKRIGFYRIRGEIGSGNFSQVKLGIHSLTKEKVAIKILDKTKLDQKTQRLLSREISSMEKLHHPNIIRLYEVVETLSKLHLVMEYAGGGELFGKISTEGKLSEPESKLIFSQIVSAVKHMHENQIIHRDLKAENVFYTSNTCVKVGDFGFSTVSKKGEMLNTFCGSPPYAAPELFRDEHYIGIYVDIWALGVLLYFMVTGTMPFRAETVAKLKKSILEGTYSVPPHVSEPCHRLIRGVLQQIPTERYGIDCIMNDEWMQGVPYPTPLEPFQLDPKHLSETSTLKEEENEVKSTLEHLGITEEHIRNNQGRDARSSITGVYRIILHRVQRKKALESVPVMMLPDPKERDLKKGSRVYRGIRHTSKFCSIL

JNK2 = JNK2 (Homo sapiens (Human), UniProt P45984); assay: KINOMEscan; type: binding; settings: JNK2, 10000 nM; read-out: Percent Control
MTOR = MTOR (Homo sapiens (Human), UniProt P42345); assay: KINOMEscan; type: binding; settings: 10000 nM, read-out: Percent Control
ALK = ALK (Homo sapiens (Human), UniProt Q9UM73); assay: KINOMEscan; type: binding; settings: 10000 nM, read-out: Percent Control
Chain of ALK (Q9UM73 19-1620): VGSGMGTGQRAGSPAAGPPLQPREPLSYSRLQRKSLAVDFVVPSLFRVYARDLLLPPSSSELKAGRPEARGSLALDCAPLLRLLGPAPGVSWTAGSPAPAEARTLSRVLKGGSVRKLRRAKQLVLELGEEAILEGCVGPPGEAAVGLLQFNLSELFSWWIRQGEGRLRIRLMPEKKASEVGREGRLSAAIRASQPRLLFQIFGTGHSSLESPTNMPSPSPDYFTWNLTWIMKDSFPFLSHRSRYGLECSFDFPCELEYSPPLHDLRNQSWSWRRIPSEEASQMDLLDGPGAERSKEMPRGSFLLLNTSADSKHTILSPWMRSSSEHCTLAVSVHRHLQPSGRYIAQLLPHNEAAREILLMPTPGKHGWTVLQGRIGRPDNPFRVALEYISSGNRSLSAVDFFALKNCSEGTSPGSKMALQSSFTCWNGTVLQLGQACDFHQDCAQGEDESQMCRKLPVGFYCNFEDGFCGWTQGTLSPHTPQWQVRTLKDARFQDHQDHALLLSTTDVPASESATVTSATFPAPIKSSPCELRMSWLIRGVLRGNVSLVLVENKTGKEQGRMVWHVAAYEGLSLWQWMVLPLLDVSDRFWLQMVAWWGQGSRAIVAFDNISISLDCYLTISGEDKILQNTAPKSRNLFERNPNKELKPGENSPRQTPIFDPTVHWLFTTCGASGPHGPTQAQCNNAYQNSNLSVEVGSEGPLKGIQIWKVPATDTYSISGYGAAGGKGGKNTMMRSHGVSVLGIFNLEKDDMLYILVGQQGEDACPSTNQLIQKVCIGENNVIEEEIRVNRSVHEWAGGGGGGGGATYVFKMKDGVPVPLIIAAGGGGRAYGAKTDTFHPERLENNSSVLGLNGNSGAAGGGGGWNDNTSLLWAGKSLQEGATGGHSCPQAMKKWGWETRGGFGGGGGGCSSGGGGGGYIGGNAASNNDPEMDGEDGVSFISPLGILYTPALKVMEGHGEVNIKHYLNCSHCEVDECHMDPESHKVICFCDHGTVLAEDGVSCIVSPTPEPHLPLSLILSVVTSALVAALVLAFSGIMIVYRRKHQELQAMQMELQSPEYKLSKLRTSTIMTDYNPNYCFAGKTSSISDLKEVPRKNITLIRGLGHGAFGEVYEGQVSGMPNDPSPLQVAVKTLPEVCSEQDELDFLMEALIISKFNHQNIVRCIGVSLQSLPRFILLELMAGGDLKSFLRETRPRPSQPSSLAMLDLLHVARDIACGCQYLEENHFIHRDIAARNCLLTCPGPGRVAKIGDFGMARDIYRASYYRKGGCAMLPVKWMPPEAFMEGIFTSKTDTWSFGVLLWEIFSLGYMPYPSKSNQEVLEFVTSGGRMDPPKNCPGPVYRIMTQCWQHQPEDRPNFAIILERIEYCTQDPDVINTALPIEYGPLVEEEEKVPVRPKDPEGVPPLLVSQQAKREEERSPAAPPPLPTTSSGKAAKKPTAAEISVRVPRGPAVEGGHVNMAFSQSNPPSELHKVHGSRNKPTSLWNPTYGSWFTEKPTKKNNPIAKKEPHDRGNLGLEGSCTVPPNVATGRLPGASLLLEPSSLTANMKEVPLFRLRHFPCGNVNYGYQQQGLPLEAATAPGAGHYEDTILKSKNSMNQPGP

MAP3K3 = MAP3K3 (Homo sapiens (Human), UniProt Q99759); assay: KINOMEscan; type: binding; settings: MAP3K3, 10000 nM; read-out: Percent Control
Chain of MAP3K3 (Q99759 whole entry): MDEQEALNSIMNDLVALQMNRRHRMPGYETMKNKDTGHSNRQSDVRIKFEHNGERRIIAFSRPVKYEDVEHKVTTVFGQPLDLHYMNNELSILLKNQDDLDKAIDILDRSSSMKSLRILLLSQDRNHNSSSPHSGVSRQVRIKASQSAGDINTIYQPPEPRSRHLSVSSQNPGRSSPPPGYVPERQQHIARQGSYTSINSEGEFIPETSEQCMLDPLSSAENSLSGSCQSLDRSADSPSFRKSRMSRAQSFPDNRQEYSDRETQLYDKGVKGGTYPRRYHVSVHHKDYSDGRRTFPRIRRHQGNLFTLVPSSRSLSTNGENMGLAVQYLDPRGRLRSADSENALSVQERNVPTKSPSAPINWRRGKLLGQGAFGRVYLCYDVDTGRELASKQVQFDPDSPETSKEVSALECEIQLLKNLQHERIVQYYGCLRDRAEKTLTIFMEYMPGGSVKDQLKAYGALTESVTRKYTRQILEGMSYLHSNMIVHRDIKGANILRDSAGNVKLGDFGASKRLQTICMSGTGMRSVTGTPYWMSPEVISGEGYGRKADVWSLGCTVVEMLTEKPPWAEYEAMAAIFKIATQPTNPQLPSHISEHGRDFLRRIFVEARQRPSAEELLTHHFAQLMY

DYRK1B = DYRK1B (Homo sapiens (Human), UniProt Q9Y463); assay: KINOMEscan; type: binding; settings: 10000 nM, read-out: Percent Control
ERN1 = ERN1 (Homo sapiens (Human), UniProt O75460); assay: KINOMEscan; type: binding; settings: ERN1, 10000 nM; read-out: Percent Control
[3] = enzymatic, Z′-LYTE, read-out: FAK IC50

| SMILES | remaining binding at 10 µM (CAMK1) [%] | remaining binding at 10 µM (PIM3) [%] | remaining binding at 10 µM (TSSK3) [%] | remaining binding at 10 µM [1] [%] | remaining binding at 10 µM (NEK9) [%] | remaining binding at 10 µM (GSK3B) [%] | remaining binding at 10 µM (TRKC) [%] | remaining binding at 10 µM (RET(V804M)) [%] | IC50 (PTK2 (FAK); [3]) | remaining binding at 10 µM (MST1R) [%] | remaining binding at 10 µM [2] [%] | remaining binding at 10 µM (PLK2) [%] | remaining binding at 10 µM (STK16) [%] | remaining binding at 10 µM (TEC) [%] | remaining binding at 10 µM (BRSK1) [%] | remaining binding at 10 µM (TESK1) [%] | remaining binding at 10 µM (NEK1) [%] | remaining binding at 10 µM (TRPM6) [%] | remaining binding at 10 µM (NIM1) [%] | remaining binding at 10 µM (JNK2) [%] | other results |
| --- | --- | --- | --- | --- | --- | --- | --- | --- | --- | --- | --- | --- | --- | --- | --- | --- | --- | --- | --- | --- | --- |
| COc1cc(N2CCC(N3CCN(C)CC3)CC2)ccc1Nc1ncc2c(n1)N(C)c1sc(C)nc1C(=O)N2 [Compound 3, 6-((2-methoxy-4-(4-(4-methylpiperazin-1-yl)piperidin-1-yl)phenyl)amino)-2,4-dimethyl-4,9-dihydro-10H-pyrimido[5,4-b]thiazolo[5,4-e][1,4]diazepin-10-one] | 100 | 70 | 98 | 9.7 | 84 | 95 | 100 | 100 | 0.062 µM and 0.0622 µM | 90 | 70 | 100 | 81 | 69 | 69 | 81 | 78 | 100 | 100 | 100 | remaining binding at 10 µM (MTOR): 85%; remaining binding at 10 µM (ALK): 100%; remaining binding at 10 µM (MAP3K3): 100%; remaining binding at 10 µM (DYRK1B): 69%; remaining binding at 10 µM (ERN1): 93% |
| COc1cc(N2CCC(N3CCN(C)CC3)CC2)ccc1Nc1ncc2c(n1)N(C)c1sc(C)nc1C(=O)N2C [Compound 5, 6-((2-methoxy-4-(4-(4-methylpiperazin-1-yl)piperidin-1-yl)phenyl)amino)-2,4,9-trimethyl-4,9-dihydro-10H-pyrimido[5,4-b]thiazolo[5,4-e][1,4]diazepin-10-one] | 92 | 100 | 98 | 100 | 100 | 99 | 100 | 73 | 0.0183 µM | 100 | 91 | 62 | 100 | 100 | 100 | 100 | 97 | 92 | 100 | 98 | IC50 (PTK2 (FAK); FAK, Invitrogen, read-out: Biochemical IC50): 0.0202 ± 0.0019 µM; remaining binding at 10 µM (MTOR): 31%; remaining binding at 10 µM (ALK): 99%; remaining binding at 10 µM (MAP3K3): 100%; remaining binding at 10 µM (DYRK1B): 87%; remaining binding at 10 µM (ERN1): 88% |
